Assay results from PubChem BioAssay (NCI).
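GI50: concentration for 50% inhibition of growth. TGI is the concentration that stops growth completely.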

What was measured:
Test in all cases: inhibition of tumour cell growth, NCI panel, 384-well format
COLO 205 colon = tested on: COLO 205 colon
HCT-15 colon = tested on: HCT-15 colon
OVCAR-4 ovarian = tested on: OVCAR-4 ovarian
SK-MEL-2 melanoma = tested on: SK-MEL-2 melanoma
HL-60(TB) leukemia = tested on: HL-60(TB) leukemia
HCT-116 colon = tested on: HCT-116 colon
MDA-MB-435 melanoma = tested on: MDA-MB-435 melanoma
OVCAR-8 ovarian = tested on: OVCAR-8 ovarian
A498 renal = tested on: A498 renal
MOLT-4 leukemia = tested on: MOLT-4 leukemia
786-0 renal = tested on: 786-0 renal
UACC-257 melanoma = tested on: UACC-257 melanoma
NCI-H322M lung = tested on: NCI-H322M lung
OVCAR-5 ovarian = tested on: OVCAR-5 ovarian
MCF7 breast = tested on: MCF7 breast
MDA-MB-231 breast = tested on: MDA-MB-231 breast
EKVX NSCLC = tested on: EKVX NSCLC
IGROV1 ovarian = tested on: IGROV1 ovarian
ACHN renal = tested on: ACHN renal
UACC-62 melanoma = tested on: UACC-62 melanoma
HCC-2998 colon = tested on: HCC-2998 colon
U251 glioblastoma = tested on: U251 glioblastoma
KM12 colon = tested on: KM12 colon
RXF 393 renal = tested on: RXF 393 renal
M14 melanoma = tested on: M14 melanoma
SK-OV-3 ovarian = tested on: SK-OV-3 ovarian
CAKI-1 renal = tested on: CAKI-1 renal
HT29 colon = tested on: HT29 colon
SW-620 colon = tested on: SW-620 colon
SK-MEL-5 melanoma = tested on: SK-MEL-5 melanoma
TK-10 renal = tested on: TK-10 renal
A549 NSCLC = tested on: A549 NSCLC
SNB-75 CNS = tested on: SNB-75 CNS
SN12C renal = tested on: SN12C renal
LOX IMVI melanoma = tested on: LOX IMVI melanoma
SF-539 CNS = tested on: SF-539 CNS
SK-MEL-28 melanoma = tested on: SK-MEL-28 melanoma
DU-145 prostate = tested on: DU-145 prostate
BT-549 breast = tested on: BT-549 breast
NCI-H226 lung = tested on: NCI-H226 lung
MALME-3M melanoma = tested on: MALME-3M melanoma
SF-295 CNS = tested on: SF-295 CNS
SF-268 CNS = tested on: SF-268 CNS
OVCAR-3 ovarian = tested on: OVCAR-3 ovarian
HS 578T breast = tested on: HS 578T breast
T-47D breast = tested on: T-47D breast
SNB-19 CNS = tested on: SNB-19 CNS
NCI-H522 lung = tested on: NCI-H522 lung
MDA-MB-468 breast = tested on: MDA-MB-468 breast
K-562 leukemia = tested on: K-562 leukemia
RPMI-8226 leukemia = tested on: RPMI-8226 leukemia
CCRF-CEM leukemia = tested on: CCRF-CEM leukemia
NCI/ADR-RES ovarian = tested on: NCI/ADR-RES ovarian
NCI-H23 lung = tested on: NCI-H23 lung
NCI-H460 NSCLC = tested on: NCI-H460 NSCLC
HOP-92 NSCLC = tested on: HOP-92 NSCLC
PC-3 prostate = tested on: PC-3 prostate
HOP-62 NSCLC = tested on: HOP-62 NSCLC
UO-31 renal = tested on: UO-31 renal

Cc1c(NC(=O)c2cc(C(N)=O)nc3cc(F)ccc23)c(C(F)(F)F)nn1Cc1ccc(C#N)cc1
GI50 (COLO 205 colon): 0.102 µM
TGI (COLO 205 colon): 1.33 µM
GI50 (HCT-15 colon): 14.1 µM
TGI (HCT-15 colon): > 100 µM
GI50 (OVCAR-4 ovarian): 0.0803 µM
TGI (OVCAR-4 ovarian): 1.7 µM
GI50 (SK-MEL-2 melanoma): 17.4 µM
TGI (SK-MEL-2 melanoma): 35.5 µM
GI50 (HL-60(TB) leukemia): 1.06 µM
TGI (HL-60(TB) leukemia): 2.38 µM
GI50 (HCT-116 colon): 1.97 µM
TGI (HCT-116 colon): 12.2 µM
GI50 (MDA-MB-435 melanoma): 17.1 µM
TGI (MDA-MB-435 melanoma): > 100 µM
GI50 (OVCAR-8 ovarian): 1.62 µM
TGI (OVCAR-8 ovarian): 5.83 µM
GI50 (A498 renal): 0.742 µM
TGI (A498 renal): 15.4 µM
GI50 (MOLT-4 leukemia): 0.11 µM
TGI (MOLT-4 leukemia): 2.02 µM
GI50 ([…]-0 renal): 0.319 µM
TGI (786-0 renal): 12.3 µM
GI50 (UACC-257 melanoma): 33.4 µM
TGI (UACC-257 melanoma): > 100 µM
GI50 (NCI-H322M lung): 1.71 µM
TGI (NCI-H322M lung): 12.9 µM
GI50 (OVCAR-5 ovarian): 2.81 µM
TGI (OVCAR-5 ovarian): 9.74 µM
GI50 (MCF7 breast): 0.198 µM
TGI (MCF7 breast): 1.22 µM
GI50 (MDA-MB-231 breast): 5.69 µM
TGI (MDA-MB-231 breast): 41.6 µM
GI50 (EKVX NSCLC): 16.1 µM
TGI (EKVX NSCLC): 66.3 µM
GI50 (IGROV1 ovarian): 1.69 µM
TGI (IGROV1 ovarian): 8.2 µM
GI50 (ACHN renal): 2.54 µM
TGI (ACHN renal): 27.1 µM
GI50 (UACC-62 melanoma): 2.78 µM
TGI (UACC-62 melanoma): 15.4 µM
GI50 (HCC-2998 colon): 0.0956 µM
TGI (HCC-2998 colon): 1.69 µM
GI50 (U251 glioblastoma): 0.974 µM
TGI (U251 glioblastoma): 12.9 µM
GI50 (KM12 colon): 0.142 µM
TGI (KM12 colon): 1.9 µM
GI50 (RXF 393 renal): 0.693 µM
TGI (RXF 393 renal): 5.32 µM
GI50 (M14 melanoma): 11.1 µM
TGI (M14 melanoma): 24.9 µM
GI50 (SK-OV-3 ovarian): 0.132 µM
TGI (SK-OV-3 ovarian): 0.313 µM
GI50 (CAKI-1 renal): 8.33 µM
TGI (CAKI-1 renal): 37.4 µM
GI50 (HT29 colon): 0.134 µM
TGI (HT29 colon): 1.31 µM
GI50 (SW-620 colon): 4.76 µM
TGI (SW-620 colon): 33.9 µM
GI50 (SK-MEL-5 melanoma): 12.3 µM
TGI (SK-MEL-5 melanoma): 54.8 µM
GI50 (TK-10 renal): 1.37 µM
TGI (TK-10 renal): 5.06 µM
GI50 (A549 NSCLC): 2 µM
TGI (A549 NSCLC): 15.6 µM
GI50 (SNB-75 CNS): 12.2 µM
TGI (SNB-75 CNS): 27 µM
GI50 (SN12C renal): 0.237 µM
TGI (SN12C renal): 12.1 µM
GI50 (LOX IMVI melanoma): 1.67 µM
TGI (LOX IMVI melanoma): 12.8 µM
GI50 (SF-539 CNS): 5.05 µM
TGI (SF-539 CNS): 27.2 µM
GI50 (SK-MEL-28 melanoma): 18.3 µM
TGI (SK-MEL-28 melanoma): > 100 µM
GI50 (DU-145 prostate): 0.0752 µM
TGI (DU-145 prostate): 2.43 µM
GI50 (BT-549 breast): 0.605 µM
TGI (BT-549 breast): 12.1 µM
GI50 (NCI-H226 lung): 0.0842 µM
TGI (NCI-H226 lung): 8.1 µM
GI50 (MALME-3M melanoma): 2.94 µM
TGI (MALME-3M melanoma): 16.4 µM
GI50 (SF-295 CNS): 1.07 µM
TGI (SF-295 CNS): 5.5 µM
GI50 (SF-268 CNS): 6.04 µM
TGI (SF-268 CNS): 28.2 µM
GI50 (OVCAR-3 ovarian): 0.0509 µM
TGI (OVCAR-3 ovarian): 1.19 µM
GI50 (HS 578T breast): 0.022 µM
TGI (HS 578T breast): 0.123 µM
GI50 (T-47D breast): 0.151 µM
TGI (T-47D breast): 11.5 µM
GI50 (SNB-19 CNS): 1.81 µM
TGI (SNB-19 CNS): 12.3 µM
GI50 (NCI-H522 lung): 4.54 µM
TGI (NCI-H522 lung): 27.8 µM
GI50 (MDA-MB-468 breast): 2.66 µM
TGI (MDA-MB-468 breast): 13.4 µM
GI50 (K-562 leukemia): 5.92 µM
TGI (K-562 leukemia): 22.3 µM
TGI (RPMI-8226 leukemia): 0.163 µM
GI50 (CCRF-CEM leukemia): 0.0337 µM
TGI (CCRF-CEM leukemia): 10.3 µM
GI50 (NCI/ADR-RES ovarian): 1.35 µM
TGI (NCI/ADR-RES ovarian): 2.87 µM
GI50 (NCI-H23 lung): 2.93 µM
TGI (NCI-H23 lung): 16.5 µM
GI50 (NCI-H460 NSCLC): 2.87 µM
TGI (NCI-H460 NSCLC): 16.3 µM
GI50 (HOP-92 NSCLC): 0.633 µM
TGI (HOP-92 NSCLC): 7.03 µM
GI50 (PC-3 prostate): 0.0532 µM
TGI (PC-3 prostate): 0.276 µM
GI50 (HOP-62 NSCLC): 3.3 µM
TGI (HOP-62 NSCLC): 16.5 µM
GI50 (UO-31 renal): 0.208 µM
TGI (UO-31 renal): 9.83 µM
